Source: patent US7834023B2 (Portola Pharmaceuticals, Inc., priority 2006, dated 2010)

Target: T1, P2Y12 receptor (Homo sapiens, UniProt Q9H244)
T1 construct: endogenous in cells; host or cells: human platelets (outdated from blood banks or fresh), apyrase-washed, whole
Assay: platelet ADP receptor binding assay (ARB): inhibition of [3H]2-MeS-ADP binding to platelets
Conditions: [3H]2-MeS-ADP binding to apyrase-washed human platelets
Method: 1. The Ability of Candidate Molecules to Inhibit the Binding of [^3H]2-MeS-ADP to the […] Receptor on Platelets was Determined Using a Radioligand Binding Assay.
Utilizing this assay the potency of inhibition of such compounds with respect to [^3H]2-MeS-ADP binding to whole platelets is determined. Under the conditions described in II (3) below, the binding of [^3H]2-MeS-ADP is solely due to the interaction of this ligand with the P2Y12 receptor, in that all the specific binding measured in this assay is competable with a P2Y12 antagonist (i.e., the specific binding is reduced to background levels by competition with an excess of P2Y12 antagonist, with no competition of binding when a P2Y1 antagonist is pre-incubated with the platelet preparation). [^3H]2-MeS-ADP binding experiments are routinely performed with outdated human platelets collected by standard procedures at hospital blood banks. Apyrase-washed outdated platelets are prepared as follows (all steps at room temperature, if not indicated otherwise):
Outdated platelet suspensions are diluted with 1 volume of CGS and platelets pelleted by centrifugation at 1900×g for 45 minutes. Platelet pellets are resuspended at 3-6×10^9 platelets/ml in CGS containing 1 U/ml apyrase (grade V, Sigma, St. Louis, Mo.) and incubated for 15 minutes at 37° C. After centrifugation at 730×g for 20 minutes, pellets are resuspended in Hepes-Tyrode's buffer containing 0.1% BSA (Sigma, St. Louis, Mo.) at a concentration of 6.66×10^8 platelets/ml. Binding experiments are performed after >45 minutes resting of the platelets.
Alternatively, binding experiments are performed with fresh human platelets prepared as described in section I (Inhibition of ADP-Mediated Platelet Aggregation in vitro), except that platelets are resuspended in Hepes-Tyrode's buffer containing 0.1% BSA (Sigma, St. Louis, Mo.) at a concentration of 6.66×10^8 platelets/mil. Very similar results are obtained with fresh and outdated platelets.
A platelet ADP receptor binding assay (ARB) using the tritiated potent agonist ligand [^3H]2-MeS-ADP (Jantzen, H. M. et al. (1999) Thromb. Hemost. 81:111-117) has been adapted to the 96-well microtiter format. In an assay volume of 0.2 ml Hepes-Tyrode's buffer with 0.1% BSA and 0.6% DMSO, 1×10^8 apyrase-washed platelets are preincubated in 96-well flat bottom microtiter plates for 5 minutes with serial dilutions of test compounds before addition of 1 nM [^3H]2-MeS-ADP ([^3H]2-methylthioadenosine-5′-diphosphate, ammonium salt; specific activity 20-50 Ci/mmole, obtained by custom synthesis from Amersham Life Science, Inc., Arlington Heights, Ill., or NEN Life Science Products, Boston, Mass.). Total binding is determined in the absence of test compounds. Samples for nonspecific binding may contain 10 μM unlabelled 2-MeS-ADP (RBI, Natick, Mass.). After incubation for 15 minutes at room temperature, unbound radioligand is separated by rapid filtration and two washes with cold (4-8° C.) Binding Wash Buffer (10 mM Hepes pH 7.4, 138 mM NaCl) using a 96-well cell harvester (Minidisc 96, Skatron Instruments, Sterling, Va.) and 8×12 GF/C glassfiber filtermats (Printed Filtermat A, for 1450 Microbeta, Wallac Inc., Gaithersburg, Md.). The platelet-bound radioactivity on the filtermats is determined in a scintillation counter (Microbeta 1450, Wallac Inc., Gaithersburg, Md.). Specific binding is determined by subtraction of non-specific binding from total binding, and specific binding in the presence of test compounds is expressed as % of specific binding in the absence of test compound dilutions. IC50s were derived by non-linear regression analysis.

T1 sequence (Q9H244 whole entry): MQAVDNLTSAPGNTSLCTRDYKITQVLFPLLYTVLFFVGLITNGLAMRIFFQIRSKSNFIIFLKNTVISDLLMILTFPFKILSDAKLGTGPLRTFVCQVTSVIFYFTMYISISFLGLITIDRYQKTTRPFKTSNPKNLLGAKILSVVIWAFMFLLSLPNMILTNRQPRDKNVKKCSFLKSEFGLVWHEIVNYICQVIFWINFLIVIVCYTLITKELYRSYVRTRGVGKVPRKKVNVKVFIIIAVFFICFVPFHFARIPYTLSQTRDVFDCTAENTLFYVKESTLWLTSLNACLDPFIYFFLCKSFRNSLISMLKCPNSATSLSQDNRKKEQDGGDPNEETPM

IC50 [nM]	Compound
> 500	O=C(NC(C(=O)O)c1ccc(Cl)s1)c1ccc(-n2ccc3ccccc3c2=O)cc1 (centres unmarked) [Compound 96, 2-(5-chlorothiophen-2-yl)-2-(4-(1-oxoisoquinolin-2(1H)-yl)benzamido)acetic acid]
> 500	O=C(NC(C(=O)O)c1ccc(Cl)s1)c1ccc(-n2cc(Br)c3ccccc3c2=O)cc1 (centres unmarked) [Compound 102, 2-(4-(4-bromo-1-oxoisoquinolin-2(1H)-yl)benzamido)-2-(5-chlorothiophen-2-yl)acetic acid]
< 50	CNc1cc2c(cc1F)C(=O)N(c1ccc(C(=O)N[C@@H](c3noc(=O)[nH]3)c3ccc(Cl)s3)cc1)CO2 [Compound 88, (S)-N-((5-chlorothiophen-2-yl)(5-oxo-4,5-dihydro-1,2,4-oxadiazol-3-yl)methyl)-4-(6-fluoro-7-(methylamino)-4-oxo-2H-benzo[e][1,3]oxazin-3(4H)-yl)benzamide]
50 to 500	CNc1cc2ncn(-c3ccc(C(=O)NC(C(=O)O)c4ccc(Cl)s4)cc3)c(=O)c2cc1F (centres unmarked) [Compound 116, 2-(5-chlorothiophen-2-yl)-2-(4-(6-fluoro-7-(methylamino)-4-oxoquinazolin-3(4H)-yl)benzamido)acetic acid]

Further lines, the compound ahead of its results:

Compound	IC50 [nM]
O=C(NC(C(=O)O)c1ccc(Cl)s1)c1ccc(-n2c(=O)[nH]c3ccccc3c2=O)cc1 (centres unmarked) [Compound 33, 2-(5-chlorothiophen-2-yl)-2-(4-(2,4-dioxo-1,2-dihydroquinazolin-3(4H)-yl)benzamido)acetic acid]	> 500
CNc1cc2c(cc1F)C(=O)N(c1ccc(C(=O)NC(c3ccc(Cl)s3)c3nnnn3C)cc1)CO2 (centres unmarked) [Compound 73, N-((5-chlorothiophen-2-yl)(1-methyl-1H-tetrazol-5-yl)methyl)-4-(6-fluoro-7-(methylamino)-4-oxo-2H-benzo[e][1,3]oxazin-3(4H)-yl)benzamide]	50 to 500
O=C(NC(C(=O)O)c1ccc(Cl)s1)c1ccc(N2COc3cc(NCc4ccc(F)cc4)ccc3C2=O)cc1 (centres unmarked) [Compound 84, 2-(5-chlorothiophen-2-yl)-2-(4-(7-(4-fluorobenzylamino)-4-oxo-2H-benzo[e][1,3]oxazin-3(4H)-yl)benzamido)acetic acid]	> 500
Cc1ccc2c(c1)C(=O)N(c1ccc(C(=O)NC(C(=O)O)c3ccc(Cl)s3)cc1)CO2 (centres unmarked) [Compound 77, 2-(5-chlorothiophen-2-yl)-2-(4-(6-methyl-4-oxo-2H-benzo[e][1,3]oxazin-3(4H)-yl)benzamido)acetic acid]	> 500
CNc1cc2c(cc1F)C(=O)N(c1ccc(C(=O)NC(Cc3ccccc3)C(=O)O)cc1)CO2 (centres unmarked) [Compound 59, 2-(4-(6-fluoro-7-(methylamino)-4-oxo-2H-benzo[e][1,3]oxazin-3(4H)-yl)benzamido)-3-phenylpropanoic acid]	> 500
CNc1cc2[nH]c(=O)n(-c3ccc(C(=O)NC(c4cccc(C)c4)c4nnn[nH]4)cc3)c(=O)c2cc1F (centres unmarked) [Compound 22]	> 500
CNc1ccc2c(=O)n(-c3ccc(C(=O)NC(C(=O)O)c4ccc(Cl)s4)cc3)c(=O)[nH]c2c1 (centres unmarked) [Compound 20, 2-(5-chlorothiophen-2-yl)-2-(4-(7-(methylamino)-2,4-dioxo-1,2-dihydroquinazolin-3(4H)-yl)benzamido)acetic acid]	50 to 500
CNc1cc2[nH]c(=O)n(-c3ccc(C(=O)NC(C(=O)O)c4ccc(Cl)cc4)cc3)c(=O)c2cc1F (centres unmarked) [Compound 14, 2-(4-chlorophenyl)-2-(4-(6-fluoro-7-(methylamino)-2,4-dioxo-1,2-dihydroquinazolin-3(4H)-yl)benzamido)acetic acid]	> 500
CNc1cc2[nH]c(=O)n(-c3ccc(C(=O)NC(c4nsc(=O)[nH]4)c4ccc(Cl)s4)cc3)c(=O)c2cc1F (centres unmarked) [Compound 25, N-((5-chlorothiophen-2-yl)(5-oxo-4,5-dihydro-1,2,4-thiadiazol-3-yl)methyl)-4-(6-fluoro-7-(methylamino)-2,4-dioxo-1,2-dihydroquinazolin-3(4H)-yl)benzamide]	50 to 500
O=C(NC(C(=O)O)c1cccs1)c1ccc(-n2c(=O)[nH]c3ccccc3c2=O)cc1 (centres unmarked) [Compound 39]	> 500
